Assays:
[1] = biological target: T1, truncated MUS81 binding to immobilized DNA substrate (Homo sapiens, UniProt Q96NY9); experiment: Biolayer interferometry (BLI); details: truncated MUS81 200 nM
T1 construct: made in house
T1 sequence (Q96NY9 246-551): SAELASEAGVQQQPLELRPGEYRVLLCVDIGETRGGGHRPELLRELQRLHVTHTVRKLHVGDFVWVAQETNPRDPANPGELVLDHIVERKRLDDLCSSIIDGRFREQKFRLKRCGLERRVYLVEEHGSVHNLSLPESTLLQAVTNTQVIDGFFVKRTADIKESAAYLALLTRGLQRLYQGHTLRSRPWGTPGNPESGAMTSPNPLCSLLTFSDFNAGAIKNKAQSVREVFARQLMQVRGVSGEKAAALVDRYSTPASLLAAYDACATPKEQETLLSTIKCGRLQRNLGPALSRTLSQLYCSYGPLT
T1 sequence (Q96AY2 178-570 partner limits assumed): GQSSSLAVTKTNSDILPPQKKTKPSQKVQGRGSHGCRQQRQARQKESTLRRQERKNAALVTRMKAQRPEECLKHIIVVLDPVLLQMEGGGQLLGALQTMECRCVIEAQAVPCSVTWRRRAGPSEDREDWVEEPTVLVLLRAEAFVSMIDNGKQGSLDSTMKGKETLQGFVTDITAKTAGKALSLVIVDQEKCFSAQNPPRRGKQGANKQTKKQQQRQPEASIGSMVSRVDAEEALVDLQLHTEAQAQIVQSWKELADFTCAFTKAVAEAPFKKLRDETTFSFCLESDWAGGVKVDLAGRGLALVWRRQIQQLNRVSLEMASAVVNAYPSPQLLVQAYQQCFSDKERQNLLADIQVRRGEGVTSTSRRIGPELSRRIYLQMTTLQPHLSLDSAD
Experimental: (A,B) Purified MUS81–EME1 (160 nM) was incubated with increasing concentrations of MU262, MU876, or their respective control analogues, followed by the addition of 3 nM fluorescently labeled 3′ flap DNA substrate. MgCl2 was omitted from the reaction buffer to prevent substrate cleavage. The reaction products were resolved on a native PAGE gel. The lower band represents a free DNA substrate, while the upper smear corresponds to the MUS81–DNA complex. n = 3. (C,D) A 3′ flap cleavage-resistant DNA substrate was immobilized on a streptavidin-coated (SAX) sensor and incubated with truncated MUS81 (200 nM) alone, or with MUS81 premixed with DMSO, MU876, MU262, or their respective control analogues. The real-time binding kinetics were measured as a change in optical thickness over time. Representative plots shown from two independent experiments. (E) Representative images of a DMSO-treated cell within 100 s after microirradiation. GFP-MUS81 U2OS cells were preincubated with DMSO or MU876 at 1 and 5 μM final concentration for 2 h. Localized DNA damage was induced using a 355 nm laser microirradiation at specific sites in individual nuclei. […] (F) The integrated intensity of a GFP-MUS81 signal accumulation ± SE from (E). n = 3.

[2] = biological target: T2, MUS81–EME1 (Homo sapiens, UniProt Q96NY9); experiment: Gel-based in vitro nuclease assay: cleavage of 3′flap DNA by purified MUS81–EME1; format: biochemical
T2 construct: The MUS81–EME1 full-length expression plasmid was obtained from Stephen C; West; made in house; host or cells: Escherichia coli
T2 sequence (Q96NY9 1-551): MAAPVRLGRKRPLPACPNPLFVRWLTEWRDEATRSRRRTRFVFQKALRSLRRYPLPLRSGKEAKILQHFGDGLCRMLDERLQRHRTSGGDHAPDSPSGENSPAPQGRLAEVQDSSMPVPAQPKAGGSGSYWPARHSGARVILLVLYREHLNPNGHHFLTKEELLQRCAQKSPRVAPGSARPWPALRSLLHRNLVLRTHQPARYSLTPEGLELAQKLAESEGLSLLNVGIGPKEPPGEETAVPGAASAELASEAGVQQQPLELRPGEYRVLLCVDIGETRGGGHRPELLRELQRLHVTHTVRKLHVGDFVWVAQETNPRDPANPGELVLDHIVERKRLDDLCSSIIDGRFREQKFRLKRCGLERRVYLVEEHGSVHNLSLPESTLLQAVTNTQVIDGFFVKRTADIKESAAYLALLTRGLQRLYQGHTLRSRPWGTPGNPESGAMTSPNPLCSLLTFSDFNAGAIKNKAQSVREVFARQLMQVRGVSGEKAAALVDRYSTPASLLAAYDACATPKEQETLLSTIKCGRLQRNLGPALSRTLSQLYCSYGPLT
T2 sequence (Q96AY2 1-570 partner): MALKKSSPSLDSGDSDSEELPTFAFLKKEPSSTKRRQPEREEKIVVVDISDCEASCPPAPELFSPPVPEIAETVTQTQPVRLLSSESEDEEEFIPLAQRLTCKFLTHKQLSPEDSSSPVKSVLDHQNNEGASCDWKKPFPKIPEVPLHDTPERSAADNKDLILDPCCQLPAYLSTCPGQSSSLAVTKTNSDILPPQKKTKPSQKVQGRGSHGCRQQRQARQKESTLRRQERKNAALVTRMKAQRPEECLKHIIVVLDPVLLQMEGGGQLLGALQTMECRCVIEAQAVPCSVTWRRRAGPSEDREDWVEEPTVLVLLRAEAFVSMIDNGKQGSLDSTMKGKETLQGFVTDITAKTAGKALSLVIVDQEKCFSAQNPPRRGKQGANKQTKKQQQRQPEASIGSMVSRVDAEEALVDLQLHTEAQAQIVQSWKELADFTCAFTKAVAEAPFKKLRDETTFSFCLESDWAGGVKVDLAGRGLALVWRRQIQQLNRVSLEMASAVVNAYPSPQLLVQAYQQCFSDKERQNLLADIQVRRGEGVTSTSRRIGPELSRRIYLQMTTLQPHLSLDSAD
Experimental: To identify the small-molecule inhibitors of MUS81, we used two complementary screening approaches. The first involved a structure-based virtual screening, where over 140,000 small molecules were docked into the active site of MUS81 using AutoDock Vina software. […] The cleavage by purified MUS81-EME1 was monitored by gel electrophoresis, and the compound activity was quantified by measuring the reduction in cleavage product intensity.
Nuclease assays were performed in reaction buffer containing 50 mM Tris pH 7.5, 10 mM MgCl2, 1 mM DTT, 85 mM KCl, and 20% glycerol. Purified MUS81–EME1 (1 nM) was preincubated in 9 μL reaction with indicated concentrations of inhibitors for 15 min at room temperature, followed by the addition of 3 nM of a 3′flap DNA substrate (listed in Supplementary Table 9) and a further incubation for 15 min at 37 °C. The final concentration of DMSO in the reactions was 2%. The reactions were stopped by the addition of 0.1% SDS and 500 μg/mL of proteinase K, followed by incubation for 5 min at 37 °C. […] The fluorescent DNA was visualized using a FLA-9000 (Fujifilm). Bands corresponding to cleaved substrates were selected for quantification using the MultiGauge 3.2 software. Final data represent integrated density of these bands with background subtraction. Fitting of the data with sigmoid curves was performed in OriginPro (OriginLab).

[3] = biological target: T3, MUS81–EME1 binding to 3′ flap DNA substrate (Homo sapiens, UniProt Q96NY9); experiment: Electrophoretic mobility shift assay (EMSA); details: MUS81–EME1 160 nM, no MgCl2
T3 construct: The MUS81–EME1 full-length expression plasmid was obtained from Stephen C; West; made in house; host or cells: Escherichia coli
T3 sequence (Q96NY9 1-551): T2 sequence (Q96NY9 1-551)
T3 sequence (Q96AY2 1-570 partner): T2 sequence (Q96AY2 1-570 partner)
Experimental: Purified MUS81–EME1 (160 nM) was incubated in a modified assay buffer without MgCl2 (50 mM Tris–HCl pH 7.4, 150 mM NaCl, and 0.05% Tween-20) with 15 nM of a 3′flap DNA substrate (listed in Supplementary Table 5) in the absence or presence of selected inhibitors at RT for 10 min, followed by an incubation at 25 °C for 10 min. The reaction was stopped on ice and products were resolved using native PAGE (7.5% acrylamide gel in 0.5% TBE) at 4 °C for 50 min (6.5 V/cm). Gel images were captured using a FLA-9000 (Fujifilm) and Typhoon (Amersham) scanners and quantified with Multi Gauge V3.2 software (Fujifilm).

What does the source list for `CCc1nn2c(O)c(-c3nc4ccccc4[nH]3)nnc2c1-c1ccc(F)cc1` [Compound 18, 3-(1H-Benzo[d]imidazole-2-yl)-7-ethyl-8-(4-fluorophenyl)pyrazolo[5,1-c][1,2,4]triazin-4-ol]?
effect on MUS81–DNA binding (BLI) [1]: only negligible effect; IC50 ([2]; Table 1, in vitro): < 1000 nM; IC50 ([2]; text and figures, MUS81–EME1 1 nM, 3 nM 3′ flap DNA): 870 nM; effect on MUS81–EME1 binding to 3′ flap DNA (EMSA) [3]: neither MU262 nor its inactive analogue MU1066 disrupted the MUS81–DNA interaction

Reference: paper PMC12990037, “Discovery of Two Structurally Distinct Classes of Inhibitors Targeting the Nuclease MUS81 and Enhancing Efficacy of Chemotherapy in Cancer Cells” (Journal of Medicinal Chemistry, 2026)
